Assay results taken from article PMC5352051, “Identification of a novel Polo-like kinase 1 inhibitor that specifically blocks the functions of Polo-Box domain” (Oncotarget, 2016).
pIC50: −log10 of the molar value.

Key:
[1] = test system: Plk1, Cyclin B1 and pHH-3 in HeLa cells; assay: Western blot of mitotic markers; type: cell-based, human; settings: synchronized HeLa, indicated concentrations, 16 hrs
Method: HeLa cells were collected after trypsinization and lysed with RIPA buffer. Equal amount of proteins (30 μg/lane) were loaded, separated by 15% SDS-PAGE. After blocking with blocking buffer for 2 hrs at RT, the membrane was incubated with the following primary antibodies diluted in blocking buffer overnight at 4°C: anti-hPlk1 mouse monoclonal antibody (Cat# P5998; Sigma; 1:3000), anti-CyclinB1 rabbit polyclonal antibody (Cat# SAB4503501; Sigma; 1:2000), anti-pHH3 rabbit monoclonal antibody (Cat# 04-817; Millipore; 1:2000), anti-GAPDH rabbit polyclonal antibody (Cat# P30008; Abmart; 1:2000). The membrane was washed 3 times and then incubated with Horseradish Peroxidase-conjugated secondary antibodies for 1 hr at RT and visualized with ECL system (Millipore). The level of GAPDH was used as the loading control.

[2] = test system: PARP cleavage in HeLa cells; assay: Western blot of PARP cleavage; type: cell-based, human; settings: 24 hrs
Method: We also performed a western blot assay to examine PARP cleavage, and the protocol was similar as describe above. Equal amount of proteins (30 μg/lane) were loaded, separated by 12% SDS-PAGE. Anti-PARP rabbit polyclonal antibody (Cat# 9542P; Cell Signaling Technology; 1:1500) was used as primary antibody. GAPDH was used as the loading control.

[3] = test system: HeLa cells; assay: Cell cycle analysis by flow cytometry (DNA content); type: cell-based, human; settings: synchronized HeLa, 10 μM
Method: HeLa cells (1.0×10^5 cells/well) were synchronized at G1/S boundary by double-thymidine block and then released into various media with indicated reagents. For cell cycle analysis, HeLa cells were harvested at different time points, washed twice with PBS, fixed in ice-cold 70% ethanol for 30 min at 4°C, and incubated with 500 μL of Propidium Iodine (Sigma; 10 μg/mL) and RNase A (Sigma; 1 mg/mL) for 30 min at 37°C in the dark prior to flow cytometry analysis (FACScan, BD Biosciences).

[4] = test system: 12 human cancer cell lines; assay: MTT assay, panel of cancer cell lines; type: cell-based; settings: all tested 12 human cancer cell lines; read-out: IC50 proliferation, range over cell lines
Method: (§1) The MTT assay was performed as described. In brief, cells were seeded at 3000~5000 cells/well into 96-well plates (200 μL/well) and incubated overnight. We replaced the growth medium with fresh medium containing T521 at several concentrations (two-fold dilutions and the initial concentration is 50 μM, 10 reactions total). After further incubation for 48 hrs in the presence of T521, the medium was removed from all wells and the cells were incubated with 200 μL of fresh medium for additional 24 hrs. We then added 22 μL of MTT solution (Amresco; 5 mg/mL in PBS) to each well and incubated the plate for 4 hrs at 37°C. After removing the medium, we dissolved the purple MTT-formazan crystals by adding 150 μL of DMSO to each well and recorded absorbance at 560 nm by Envision Multilabel Reader (PerkinElmer). The inhibition curve was plotted to determine the IC50 of various cell lines using GraphPad Prism5.0.

[5] = target: T1, Plk1-Bub1 interaction (Homo sapiens, UniProt P53350); assay: Co-immunoprecipitation (IP) assay in HeLa cells; type: cell-based; settings: HeLa cells released from double-thymidine arrest, 5, 10, 15 μM, 10 hrs
T1 construct: endogenous in cells; host or cells: HeLa
T1 sequence (P53350 2-603 limits assumed): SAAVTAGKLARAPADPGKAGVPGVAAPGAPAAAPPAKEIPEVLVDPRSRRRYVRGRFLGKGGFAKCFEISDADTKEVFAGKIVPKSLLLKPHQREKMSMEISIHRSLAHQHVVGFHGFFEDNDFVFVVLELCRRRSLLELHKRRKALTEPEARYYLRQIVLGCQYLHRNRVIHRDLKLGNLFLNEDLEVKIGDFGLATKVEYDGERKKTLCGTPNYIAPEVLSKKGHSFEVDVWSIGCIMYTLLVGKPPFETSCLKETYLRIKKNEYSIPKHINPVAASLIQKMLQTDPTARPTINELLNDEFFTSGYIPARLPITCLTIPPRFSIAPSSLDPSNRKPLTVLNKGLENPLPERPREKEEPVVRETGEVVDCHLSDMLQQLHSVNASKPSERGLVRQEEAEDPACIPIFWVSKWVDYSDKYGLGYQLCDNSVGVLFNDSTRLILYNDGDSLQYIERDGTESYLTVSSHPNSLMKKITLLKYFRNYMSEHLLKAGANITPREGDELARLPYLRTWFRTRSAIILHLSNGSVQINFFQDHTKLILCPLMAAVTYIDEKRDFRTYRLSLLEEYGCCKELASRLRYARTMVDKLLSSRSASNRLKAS
Method: HeLa cells were synchronized in G1/S boundary by double-thymidine block as described, and then released into medium containing DMSO and T521 (5, 10, 15 μM) for 10 hrs. For Co-IP assay, rabbit polyclonal anti-Bub1 antibody (Cat# ab70372; Abcam) was coupled to Protein A-Agarose beads (Cat# sc-2001; Santa Cruz) at a concentration 100 μg/mL. Treated HeLa cells were lysed with RIPA buffer. After clearing by centrifugation, the lysate was incubated with the beads coupled to anti-Bub1 antibody for 2 hrs at 4°C. The beads were washed with the lysis buffer for three times. The proteins bound to the beads were dissolved in loading buffer and separated by 10% SDS-PAGE, and probed with the mouse monoclonal anti-hPlk1 antibody (Cat# P5998; Sigma; 1:3000) and rabbit polyclonal anti-Bub1 antibody (Cat# ab70372;Abcam; 1:2000), respectively.

[6] = test system: normal cell lines, MRC5, HEK-293 and L02 cells; assay: MTT assay, panel of normal cell lines; type: cell-based; settings: Homo sapiens; three exponentially growing normal cell lines; read-out: IC50 proliferation, range over cell lines
Method: as §1

[7] = test system: HeLa cells; assay: Immunofluorescence assay, mitotic phase distribution; type: cell-based, human; settings: 10 hrs; for percentage of prometaphase cells: synchronized HeLa, control 23.3%
Method: To determine mitotic phase distribution, about 50 mitotic cells were analyzed. Cells were classified according to the structure and alignment of the chromosomes as well as the number and location of the centrosomes. All experiments were performed in triplicate. For confocal microscopy, HeLa cells grown on coverslips were fixed and permeabilized in methanol for 15 min at −20°C and then incubated with blocking buffer (PBS with 0.1% Triton X-100 and 5% BSA) for 2 hrs at RT. And then the coverslips were followed by washing and incubation with primary antibodies and fluorophore-conjugated secondary antibodies for 1 hr at RT, respectively. All antibodies were diluted in blocking buffer and the coverslips were washed three times with PBST, and then all coverslips were treated with 4',6-diamidino-2-phenylindole (DAPI) (Sigma; 2 μg/mL) for 2 min at RT, washed again and mounted onto slides using ProLong Diamond Antifade Mountant (Cat# 36961; Molecular Probes). Immunofluorescence images were taken with Olympus FV1000 Confocal Laser Microscope (Olympus, Japan) at 600×magnification. All images were processed using FV10-ASW 3.0 Viewer Software System (Olympus, Japan). The following antibodies were used: anti-α-Tubulin mouse monoclonal antibody (Cat# T9026; Sigma; 1:800), anti-γ-Tubulin rabbit polyclonal antibody (Cat# T3559; Sigma; 1:1500), Alex Fluor 488-conjugated goat anti-mouse IgG (Cat# A-11011; Molecular Probes; 1:1000) and Alex Fluor 594-conjugated donkey anti-rabbit IgG (Cat# A-21207; Molecular Probes; 1:1000).

[8] = test system: HeLa cells; assay: Apoptosis assay, Annexin V/PI dual-staining; type: cell-based, human; settings: exponentially growing HeLa, various concentrations, 24 hrs, vs DMSO
Method: For apoptosis assay, HeLa cells were seeded at 3.0×10^4 cells/well into 6-well plates and incubated overnight. Then exponentially growing HeLa cells were treated with T521 at the indicated concentrations for 24 hrs and Annexin V/PI dual-staining was carried out using a commercial apoptosis assay kit (Beijing 4A Biotech. Co., Ltd.). DMSO-treated cells were taken as control.

How did the “mitotic markers (Plk1, Cyclin B1, pHH-3) protein levels” value [1] turn out when `CCS(=O)(=O)c1oc(-c2ccc(F)cc2)nc1S(=O)(=O)c1ccccc1` [T521, 5-(ethylsulfonyl)-2-(4-fluorophenyl)-4-(phenylsulfonyl) oxazole] was run?
The value was “accumulation of these mitotic markers”.

And the PARP cleavage [2]?
The PARP cleavage was “increase of PARP cleavage”.

What about the “cells with 4C DNA content” value ([3]; 16 hrs after release) of the same compound?
The value was “about 40%”.

And the “cells remaining in G2/M phase” value ([3]; entire course (24 hrs))?
Its value is “At least 20%”.

What about the pIC50 [4] of the same compound?
The pIC50 was 5.30 to 6.00.

And the “Plk1 protein level in Bub1 immunoprecipitates” value [5]?
The value was “clear decrease”.

And the pIC50 [6]?
Its pIC50 is 5.00 to 5.52.

And the “percentage of prometaphase cells” value ([7]; 5 μM)?
Its value is 32.7%.

And the “percentage of prometaphase cells” value ([7]; 10 μM)?
Its value is 56.0%.

What about the “percentage of prometaphase cells” value ([7]; 15 μM) of the same compound?
Its value is 76.2%.

And the “metaphase cells with chromosome alignment defects” value ([7]; synchronized HeLa, 5, 10, 15 μM)?
Its value is “remarkable increase”.

What about the “cell population positive for Annexin V staining” value [8] of the same compound?
Its value is “increase of cell population positive for Annexin V staining”.
